# Assay results: ChEMBL document CHEMBL4359836, “Synthesis and Biological Assessment of Pyrrolobenzoxazine Scaffold as a Potent Antioxidant” (J Med Chem, 2019)
# The source made the active and inactive calls. No cut-off for these calls is given here.
# Key:
# [1] = Antioxidant activity in pH 7.4 phosphate buffer assessed as H2O2 scavenging activity by measuring H2O2 decomposition at 1.34 to 10.72 uM by spectrophotometric analysis; format: functional
# [2] = Antioxidant activity in pH 7.4 potassium phosphate buffer assessed as CuCl2/ascorbic acid induced hydroxyl radical scavenging activity by measuring deoxyribose degradation product formation after 20 mins by thiobarbituric acid based absorbance analysis; format: functional
# [3] = Pro-oxidant activity in pH 7.4 potassium phosphate buffer assessed as reduction in CuCl2/ascorbic acid induced hydroxyl radical scavenging activity at > 66 uM in presence of deoxyribose by measuring deoxyribose degradation product formation after 20 mins by thiobarbituric acid based absorbance analysis
# [4] = Antioxidant activity in pH 10 Tris-HCl buffer assessed as superoxide anion radical scavenging activity by measuring rate of epinephrine auto-oxidation by spectrophotometric analysis; format: functional
# [5] = Antioxidant activity in pH 7.4 phosphate buffer assessed as DPPH radical scavenging activity at 4 to 100 uM after 30 mins by spectrophotometric analysis (reference value: 0.811 +/- 0.02%); format: functional
# [6] = Reducing power of the compound assessed as reducing Fe3+ power at 80 uM using K3Fe(CN)6 in pH 6.6 phosphate buffer after 20 mins by spectrophotometric analysis
# [7] = Antioxidant activity in pH 7.4 potassium phosphate buffer assessed as CuCl2/ascorbic acid induced hydroxyl radical scavenging activity by measuring trolox equivalent antioxidant capacity by measuring IC50 Trolox/IC50 test compound ratio in presence of deoxyribose by thiobarbituric acid based absorbance analysis; format: functional
# [8] = Antioxidant activity in pH 7.4 potassium phosphate buffer assessed as CuCl2/ascorbic acid induced hydroxyl radical scavenging activity at 66 uM in presence of deoxyribose after 20 mins by thiobarbituric acid based absorbance analysis (reference value: 0.617 +/- 0.02%); format: functional
# [9] = Antioxidant activity in pH 10 Tris-HCl buffer assessed as superoxide anion radical scavenging activity by measuring rate of epinephrine auto-oxidation at 10.72 uM by spectrophotometric analysis (reference value: 0.0186 +/- 0.004%); format: functional
# [10] = Pro-oxidant activity in pH 10 Tris-HCl buffer assessed as reduction in superoxide anion radical scavenging activity by measuring rate of epinephrine auto-oxidation at 10.72 uM by spectrophotometric analysis
# [11] = Antioxidant activity in pH 10 Tris-HCl buffer assessed as superoxide anion radical scavenging activity by measuring rate of epinephrine auto-oxidation at 8.04 uM by spectrophotometric analysis (reference value: 0.0186 +/- 0.004%); format: functional
# [12] = Antioxidant activity in pH 7.4 phosphate buffer assessed as DPPH radical scavenging activity after 30 mins by spectrophotometric analysis; format: functional
IC50 [2] [µM],IC50 [12] [µM],SMILES,Activity [1],Activity [2],Activity [3],Activity [4],Activity [5] [%],Activity [6],Ratio IC50 [7],Activity [8] [%],Activity [9] [%],Activity [10],Activity [11] [%]
10.4,,CCOC(=O)c1c(-c2ccc(C)cc2)cn2c1c(=O)oc1ccccc12,inactive,Dose-dependent effect,Active,Dose-dependent effect,< 14,Dose-dependent effect,0.95,,,,
8.4,,COC(=O)c1c(-c2cccc(Cl)c2)cn2c1c(=O)oc1ccccc12,inactive,Dose-dependent effect,Active,Dose-dependent effect,< 14,inactive,1.18,90,83,,
4.8,,CCOC(=O)c1c(-c2cc(OC)c(OC)c(OC)c2)cn2c1c(=O)oc1ccccc12,inactive,Dose-dependent effect,Active,Dose-dependent effect,< 14,inactive,2.06,92,,Active,83
9.9,36.4,Cc1c(C)c2c(c(C)c1O)CCC(C)(C(=O)O)O2 (stereo unspecified) [TROLOX],,,,,,,,,,,
